Earlier results on one compound are cited in patent US20030206958A1, “Chitosan biopolymer for the topical delivery of active agents” (priority 2002, published 2003).

Regarding `CC1=C(/C=C/C(C)=C/C=C/C(C)=C/C(=O)O)C(C)(C)CCC1` [tretinoin, all-trans retinoic acid], the Patients with irritation (topical (Gilchrest, 1997)) is 90 % of patients. For the same compound, the “Patients discontinuing treatment because of irritation” value (topical (Stam-Posthuma et al., 1998)) is on record as ~50 % of patients.
